SMILES	logP
CN(C)c1nnc(C(C)(C)C)c(=O)n1C	1.07
Cc1nnc(C(C)(C)C)c(=O)n1N	1.03
CSc1nnc(C2CCCCC2)c(=O)n1N	2.09
CNc1nnc(-c2cc(Cl)cc(Cl)c2)c(=O)n1N	1.91
CNc1nnc(C(C)(C)C)c(=O)n1N	0.52
Cn1c(S)nnc(-c2ccc(F)cc2)c1=O	2.38
CCOc1cccc(-c2nnc(C)n(NC)c2=O)c1	1.91
CSc1nnc(-c2cc(Cl)cc(Cl)c2)c(=O)n1N	3.02
CCCc1nnc(SC)n(N)c1=O	1.19
CSc1nnc(C2CCOCC2)c(=O)n1N	1.07
COc1nnc(C(C)(C)C)c(=O)n1N	1.31
CNc1nnc(-c2ccc(OC(F)(F)F)cc2)c(=O)[nH]1	1.86
CSc1nnc(-c2ccc(OC(F)(F)F)cc2)c(=O)[nH]1	2.35
Cn1c(S)nnc(-c2cc(Cl)cc(Cl)c2)c1=O	3.43
CCOc1cccc(-c2nnc(S)n(C)c2=O)c1	2.67
Nn1c(S)nnc(-c2cc(Cl)cc(Cl)c2)c1=O	2.67
CSc1nnc(C)c(=O)n1N	0.15
CNc1nnc(-c2ccc(F)c(Cl)c2)c(=O)n1C	1.6
CSc1nnc(C(C)C)c(=O)n1N	1.23
CNc1nnc(-c2ccc(OC(F)(F)F)c(Cl)c2)c(=O)n1C	2.35
CSc1nnc(CC(C)C)c(=O)n1N	1.53

Source: the SangsterLogP compilation
